In patent US8883782B2, “Spiro-tetracyclic ring compounds as beta-secretase modulators and methods of use” (Amgen Inc., priority 2010, dated 2014):
Where two headings read alike, the source gives them in different places.

What was measured:
[1] = target: Beta Secretase enzyme (BACE) (Homo sapiens, UniProt P56817); test: In vitro enzymatic BACE FRET (fluorescence resonance energy transfer) assay; assay type: biochemical; details: average IC50, enzyme assay; read-out: BACE 1 FRET assay
In short: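 Acetate buffer (0.05 M, pH 4.2), 10% DMSO final, 100 uM nonionic detergent genapol. Substrate addition (50 nM FRET peptide) initiates; one-hour incubation; Tris raises pH to neutrality before fluorescence measurement.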

[2] = tested on: Aβ40 in conditioned medium of cells stably expressing Amyloid Precursor Protein (APP); test: In vitro BACE cell-based assay (Aβ40 in conditioned medium, sandwich ELISA); details: read-out: HEK cell assay
In short: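 Quantification relied on pAb40/6E10 sandwich ELISA with Europium fluorescence counts, and IC50 was fitted versus concentration.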

[3] = Homo sapiens, HEK293, average IC50, HEK cells
[4] = Homo sapiens, HEK293, average IC50

Sequence of Beta Secretase enzyme (BACE) (P56817 46-501, species assumed): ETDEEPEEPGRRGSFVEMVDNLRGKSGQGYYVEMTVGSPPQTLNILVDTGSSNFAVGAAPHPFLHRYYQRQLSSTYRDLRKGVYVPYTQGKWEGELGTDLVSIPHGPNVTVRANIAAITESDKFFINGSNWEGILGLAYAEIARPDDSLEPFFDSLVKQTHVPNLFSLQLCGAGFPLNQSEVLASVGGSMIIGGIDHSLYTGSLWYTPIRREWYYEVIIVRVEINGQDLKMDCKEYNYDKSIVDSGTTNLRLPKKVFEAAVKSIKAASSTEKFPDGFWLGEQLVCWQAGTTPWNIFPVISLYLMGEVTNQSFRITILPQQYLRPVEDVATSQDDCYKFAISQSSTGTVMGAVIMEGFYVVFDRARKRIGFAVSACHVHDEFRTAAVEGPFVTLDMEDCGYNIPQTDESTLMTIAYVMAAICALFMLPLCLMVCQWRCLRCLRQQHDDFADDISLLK

Molecule: NC1=N[C@@]2(CO1)c1cc(-c3cccnc3F)ccc1Oc1cnc(N3CCCC(F)(F)C3)cc12 [Example 430, (5S)-3-(3,3-difluoro-1-piperidinyl)-7-(2-fluoro-3-pyridinyl)spiro[chromeno[2,3-c]pyridine-5,4′-[1,3]oxazol]-2′-amine]
- IC50 [1]: 0.0006 µM
- IC50 [2, 3]: 0.0069 µM

Molecule: NC1=N[C@]2(CS1)c1cc(-c3cccnc3)c(F)cc1Oc1c(F)cc(C3=CCCOC3)cc12 [Example 884, (4R)-7′-(5,6-dihydro-2H-pyran-3-yl)-3′,5′-difluoro-2′-(3-pyridinyl)spiro[1,3-thiazole-4,9′-xanthen]-2-amine]
- IC50 [1]: 0.162 µM
- IC50 [2, 3]: ≥ 10 µM

Molecule: NC1=N[C@]2(CO1)c1ccncc1Oc1ccc(-c3c(F)ccnc3F)cc12 [Example 677, (5S)-7-(2,4-difluoro-3-pyridinyl)spiro[chromeno[2,3-c]pyridine-5,4′-[1,3]oxazol]-2′-amine]
- IC50 [1]: 0.0516 µM
- IC50 [2, 3]: 0.58 µM

Molecule: CC1(C#Cc2cc3c(nc2F)Oc2ccc(-c4cccnc4F)cc2C32COC(N)=N2)COC1 (stereo not shown) [Example 149, 2-fluoro-7-(2-fluoro-3-pyridinyl)-3-((3-methyl-3-oxetanyl)ethynyl)spiro[chromeno[2,3-b]pyridine-5,4′-[1,3]oxazol]-2′-amine]
- IC50 [1]: 0.0008 µM
- IC50 [2, 4]: 0.0076 µM

Molecule: NC1=N[C@@]2(CO1)c1cc(-c3cnccn3)ccc1Oc1c(F)cc(C3CCOCC3)cc12 [Example 935, (4S)-4′-fluoro-7′-(2-pyrazinyl)-2′-(tetrahydro-2H-pyran-4-yl)spiro[1,3-oxazole-4,9′-xanthen]-2-amine]
- IC50 [1]: 0.0066 µM
- IC50 [2, 3]: 0.082 µM

Molecule: Cn1cc(-c2cnc3c(c2)[C@]2(COC(N)=N2)c2c(ccc(-c4cccnc4F)c2F)O3)cn1 [Example 356, (5R)-6-fluoro-7-(2-fluoro-3-pyridinyl)-3-(1-methyl-1H-pyrazol-4-yl)spiro[chromeno[2,3-b]pyridine-5,4′-[1,3]oxazol]-2′-amine]
- IC50 [1]: 0.0009 µM
- IC50 [2, 4]: 0.0139 µM

Molecule: CC(C)(C)COc1ccc2c(c1)[C@@]1(COC(N)=N1)c1cc(-c3cncnc3)c(F)cc1O2 [Example 511, (4R)-7′-(2,2-dimethylpropoxy)-3′-fluoro-2′-(5-pyrimidinyl)spiro[1,3-oxazole-4,9′-xanthen]-2-amine]
- IC50 [1]: 0.0993 µM
- IC50 [2, 3]: 0.492 µM

Molecule: NC1=N[C@]2(CO1)c1cc(-c3cccnc3F)ccc1Oc1c2cc(Br)nc1F [Example 736, (5R)-3-bromo-1-fluoro-7-(2-fluoro-3-pyridinyl)spiro[chromeno[2,3-c]pyridine-5,4′-[1,3]oxazol]-2′-amine]
- IC50 [1]: 2.09 µM
- IC50 [2, 4]: ≥ 10 µM

Molecule: NC1=N[C@@]2(CO1)c1cc(-c3cccnc3F)ccc1Oc1cnc(-c3cncc(F)c3)cc12 [Example 569, (5S)-7-(2-fluoro-3-pyridinyl)-3-(5-fluoro-3-pyridinyl)spiro[chromeno[2,3-c]pyridine-5,4′-[1,3]oxazol]-2′-amine]
- IC50 [1]: 0.0012 µM
- IC50 [2, 3]: 0.0182 µM

Molecule: NC1=N[C@@]2(CO1)c1cc(-c3cccnc3F)ccc1Oc1c(F)cc(-c3cccnn3)cc12 [Example 201, (4S)-4′-fluoro-7′-(2-fluoro-3-pyridinyl)-2′-(3-pyridazinyl)spiro[1,3-oxazole-4,9′-xanthen]-2-amine]
- IC50 [1]: 0.0018 µM
- IC50 [2, 4]: 0.0076 µM

Molecule: NC1=N[C@@]2(CO1)c1cc(-c3cccnc3F)ccc1Oc1ncc(Br)cc12 [Example 1018, (5S)-3-bromo-7-(2-fluoro-3-pyridinyl)spiro[chromeno[2,3-b]pyridine-5,4′-[1,3]oxazol]-2′-amine]
- IC50 [1]: 0.577 µM
- IC50 [2, 4]: 0.563 µM

Molecule: COc1cc(F)c2c(c1)[C@]1(COC(N)=N1)c1cc(-c3cncc(CC#N)c3)ccc1O2 [Example 1074, (5-((4S)-2-amino-5′-fluoro-7′-methoxyspiro[1,3-oxazole-4,9′-xanthen]-2′-yl)-3-pyridinyl)acetonitrile]
- IC50 [1]: 0.131 µM
- IC50 [2, 4]: 0.324 µM

Molecule: COC[C@H]1SC(N)=NC12c1cc(-c3cccnc3F)ccc1Oc1cnc(-c3ccnc(F)c3)cc12 (single isomer, unassigned) [Example 1093, (4′S/R,5′S)-7-(2-fluoropyridin-3-yl)-3-(2-fluoropyridin-4-yl)-5′-(methoxymethyl)-5′H-spiro[chromeno[2,3-c]pyridine-5,4′-thiazol]-2′-amine]
- IC50 [1]: 0.0057 µM
- IC50 [2]: 0.495 µM

Molecule: CC1(C)CCCN(c2cnc3c(c2)[C@]2(COC(N)=N2)c2cc(-c4cccnc4F)ccc2O3)C1 [Example 483, (5S)-3-(3,3-dimethyl-1-piperidinyl)-7-(2-fluoro-3-pyridinyl)spiro[chromeno[2,3-b]pyridine-5,4′-[1,3]oxazol]-2′-amine]
- IC50 [1]: 0.0034 µM
- IC50 [2, 3]: 0.0223 µM

Molecule: N#Cc1cccc(-c2ccc3c(c2)[C@@]2(COC(N)=N2)c2cc(N4CCOCC4)cc(F)c2O3)c1 [Example 564, 3-((4S)-2-amino-5′-fluoro-7′-(4-morpholinyl)spiro[1,3-oxazole-4,9′-xanthen]-2′-yl)benzonitrile]
- IC50 [1]: 0.0016 µM
- IC50 [2, 3]: 0.0092 µM

Molecule: COc1cc(F)c2c(c1)[C@]1(CSC(N)=N1)c1cc(-c3cccnc3F)ccc1O2 [Example 608, (4S)-4′-fluoro-7′-(2-fluoro-3-pyridinyl)-2′-methoxyspiro[1,3-thiazole-4,9′-xanthen]-2-amine]
- IC50 [1]: 0.0036 µM
- IC50 [2, 3]: 0.162 µM

Molecule: CC1(C#Cc2cnc3c(c2)[C@]2(CSC(N)=N2)c2cc(-c4cncc(F)c4)ccc2O3)COC1 [Example 964, (5S)-7-(5-fluoro-3-pyridinyl)-3-((3-methyl-3-oxetanyl)ethynyl)spiro[chromeno[2,3-b]pyridine-5,4′-[1,3]thiazol]-2′-amine]
- IC50 [1]: 0.0009 µM
- IC50 [2, 3]: 0.015 µM

Molecule: NC1=N[C@]2(CO1)c1cc(C3=CCOCC3)cc(F)c1Oc1ccc(-c3cccnc3F)c(F)c12 [Example 1047, (4R)-7′-(3,6-dihydro-2H-pyran-4-yl)-1′,5′-difluoro-2′-(2-fluoro-3-pyridinyl)spiro[1,3-oxazole-4,9′-xanthen]-2-amine]
- IC50 [1]: 0.0046 µM
- IC50 [2, 4]: 0.095 µM

Molecule: NC1=N[C@@]2(CO1)c1cc(-c3cncc(F)c3)ccc1Oc1cnc([C@@H]3CCCCO3)cc12 [Example 381, (5S)-7-(5-fluoro-3-pyridinyl)-3-((2S)-tetrahydro-2H-pyran-2-yl)spiro[chromeno[2,3-c]pyridine-5,4′-[1,3]oxazol]-2′-amine]
- IC50 [1]: 0.0073 µM
- IC50 [2, 4]: 0.0626 µM

Molecule: CC(C)(C)COc1cc2c(cn1)Oc1ccc(-c3cccnc3F)cc1[C@@]21COC(N)=N1 [Example 609, (5S)-3-(2,2-dimethylpropoxy)-7-(2-fluoro-3-pyridinyl)spiro[chromeno[2,3-c]pyridine-5,4′-[1,3]oxazol]-2′-amine]
- IC50 [1]: 0.0004 µM
- IC50 [2, 3]: 0.015 µM

Molecule: Cc1cc(-c2ccc3c(c2)[C@@]2(COC(N)=N2)c2cc(C4=CCOCC4)ncc2O3)cnc1F [Example 228, (5S)-3-(3,6-dihydro-2H-pyran-4-yl)-7-(6-fluoro-5-methyl-3-pyridinyl)spiro[chromeno[2,3-c]pyridine-5,4′-[1,3]oxazol]-2′-amine]
- IC50 [1]: 0.0025 µM
- IC50 [2, 4]: 0.014 µM

Molecule: NC1=N[C@]2(CO1)c1cc(-c3cccnc3F)ccc1Oc1nc(F)c(I)cc12 [Example 899, (5R)-2-fluoro-7-(2-fluoro-3-pyridinyl)-3-iodospiro[chromeno[2,3-b]pyridine-5,4′-[1,3]oxazol]-2′-amine]
- IC50 [1]: 40 µM
- IC50 [2, 3]: ≥ 10 µM

Molecule: NC1=N[C@@]2(CO1)c1cc(-c3cccnc3F)ccc1Oc1cnc(-c3cc(F)nc(F)c3)cc12 [Example 541, (5S)-3-(2,6-difluoro-4-pyridinyl)-7-(2-fluoro-3-pyridinyl)spiro[chromeno[2,3-c]pyridine-5,4′-[1,3]oxazol]-2′-amine]
- IC50 [1]: 0.0004 µM
- IC50 [2, 3]: 0.0123 µM

Molecule: NC1=N[C@@]2(CO1)c1cc(-c3cccnc3)ccc1Oc1cnc(N3CC[C@@H](F)C3)cc12 [Example 411, (5S)-3-((3R)-3-fluoro-1-pyrrolidinyl)-7-(3-pyridinyl)spiro[chromeno[2,3-c]pyridine-5,4′-[1,3]oxazol]-2′-amine]
- IC50 [1]: 0.0023 µM
- IC50 [2, 3]: 0.0045 µM

Molecule: NC1=N[C@@]2(CO1)c1cc(-c3cncc(C#CC4CC4)c3)ccc1Oc1cnc(-c3ccnc(F)c3)cc12 [Example 815, (5S)-7-(5-(cyclopropylethynyl)-3-pyridinyl)-3-(2-fluoro-4-pyridinyl)spiro[chromeno[2,3-c]pyridine-5,4′-[1,3]oxazol]-2′-amine]
- IC50 [1]: 0.0019 µM
- IC50 [2, 4]: 0.699 µM

Molecule: NC1=N[C@@]2(CO1)c1cc(-c3cccnc3)ncc1Oc1c(F)cc(C3=CCOCC3)cc12 [Example 307, (5S)-7-(3,6-dihydro-2H-pyran-4-yl)-9-fluoro-3-(3-pyridinyl)spiro[chromeno[2,3-c]pyridine-5,4′-[1,3]oxazol]-2′-amine]
- IC50 [1]: 0.0039 µM
- IC50 [2, 4]: 0.0581 µM

Molecule: NC1=NC2(CS1)c1cc(-c3cccnc3F)ccc1Oc1c2cc(C2=CCOCC2)nc1F (stereo not shown) [Example 638, 3-(3,6-dihydro-2H-pyran-4-yl)-1-fluoro-7-(2-fluoro-3-pyridinyl)spiro[chromeno[2,3-c]pyridine-5,4′-[1,3]thiazol]-2′-amine]
- IC50 [1]: 0.0006 µM
- IC50 [2, 3]: 0.004 µM

Molecule: (5R)-7-(2,4-difluoro-3-pyridinyl)-3-(2-fluoro-4-pyridinyl)spiro[chromeno[2,3-c]pyridine-5,4′-[1,3]thiazol]-2′-amine, (5S)-7-(2,4-difluoro-3-pyridinyl)-3-(2-fluoro-4-pyridinyl)spiro[chromeno[2,3-c]pyridine-5,4′-[1,3]thiazol]-2′-amine [Example 1019]
- IC50 [1]: 0.0007 µM
- IC50 ([2]; average IC50): 0.033 µM

Molecule: NC1=N[C@]2(CO1)c1cc(C3=CCCOC3)cc(F)c1Oc1ccc(-c3cccnc3F)c(F)c12 [Example 1048, (4R)-7′-(5,6-dihydro-2H-pyran-3-yl)-1′,5′-difluoro-2′-(2-fluoro-3-pyridinyl)spiro[1,3-oxazole-4,9′-xanthen]-2-amine]
- IC50 [1]: 0.0039 µM
- IC50 [2, 4]: 0.036 µM
